Where “and” joins values, the source holds several entries; their conditions need not be identical. Identical values can stand only once.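 A five-concentration, 48-hour dose response in 96-well plates underlies each endpoint, interpolated linearly between surrounding concentrations. GI50 = concentration required for 50% inhibition of growth. TGI is the concentration that stops growth completely.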
Each compound was assayed on MDA-MB-231 breast (assay: NCI-60 cell line screen, 48 h).
`CCOC(=O)c1c(CN2CCCC2)n(-c2ccccc2)c2cc(Br)c(O)cc12` gave a TGI of 39.7 µM.
With `O=C1c2cc3c(cc2-c2c1c1ccc(F)cc1c(=O)n2C[C@H](O)[C@@H](O)[C@H](O)CO)OCO3` the GI50 was 0.325 µM and the TGI was 0.984 µM.
Work on `Nn1c(Nc2ccc(S(=O)(=O)Nc3ncccn3)cc2)nnc(/C=C/c2c(O)ccc3ccccc23)c1=O` yielded a TGI of 71 µM.
`Cc1cc(-c2nc3ccc(F)cc3s2)ccc1NC(=O)[C@H](C)N` was tested, and the TGI was 22.6 µM.
In the case of `Cc1cc(Nc2ccc(S(=O)(=O)O)c3cc(S(=O)(=O)O)cc(S(=O)(=O)O)c23)c2ccccc2n1`, the TGI is reported as over 100 µM.
With `NS(=O)(=O)c1nnc(NC(=O)Nc2ccc(Cl)c(Cl)c2)s1` the TGI was 67.1 µM.
In the case of `O=[N+]([O-])c1cc(C=NC23CC4CC(CC(C4)C2)C3)ccc1Cl`, the TGI is reported as 24.7 µM.
`CCCCCC1=CC(=O)C1(Cl)Cl` was tested, and the TGI was 31 µM.
With `CC(=O)N(C(=O)CC(=O)N1N=C(c2ccccc2)C(N=Nc2ccccc2[N+](=O)[O-])C1=O)c1ccc(Cl)cc1` (stereo not drawn) the TGI was over 10 µM.
With `Oc1ccccc1CNCc1nc2ccccc2[nH]1` the TGI was over 100 µM.
Compound `COc1ncc(/C=C2\OC(=O)c3ccccc32)c(OC)n1` has a TGI of over 100 µM.
`CC(=O)Nn1c(=S)[nH]c2ccccc21` gave a TGI of over 100 µM.
Work on `C[C@]12CCC3C4=C(CCC3C1CCC2=O)C(=O)[C@H]1O[C@H]1C4=O` (stereo partly drawn) yielded a TGI of 3.64 µM.
Work on `CCCCOC(=O)Nc1ccc(S(=O)(=O)Nc2ccccc2Cl)cc1` yielded a TGI of 42 µM.
For `CC(C)c1cc2c(cc1S(=O)(=O)O)[C@@]1(C)CCC[C@@](C)(C(=O)O)C1CC2` (stereo partly drawn), the TGI was over 100 µM.
`N#CC(Cc1ccccc1)N(CCC1=CCCCC1)C(c1ccccc1)c1ccccc1` (stereo not drawn) showed a TGI of over 100 µM.
For `C/C(=C\CBr)CCC(Br)C(C)(C)Br` (stereo not drawn), the TGI was over 100 µM.
`[N-]=[N+]=NC(c1ccccc1)(c1ccccc1)c1ccccc1` was tested, and the TGI was 31.2 µM.
Compound `CC(=O)c1c2c(c3ccccc3c1O)O[C@@H]1OCC[C@H]21` has a TGI of over 100 µM.
With `C(=C(c1ccc(OC2CCCCO2)cc1)c1ccc(OC2CCCCO2)cc1)c1ccccc1` (stereo not drawn) the TGI was 1.52 µM.
Work on `C[C@]12CC[C@H](O)CC1=CC[C@@H]1[C@@H]2CC[C@]2(C)C(=N/N)/C(=N\O)C[C@@H]12` yielded a TGI of over 100 µM.
Compound `CC(=O)Oc1cccc2c1C(=O)CCCC2` has a TGI of over 100 µM.
For `CCN(CC)C(=S)N/N=C/c1cc([N+](=O)[O-])ccc1O`, the TGI was 30.4 µM.
`Cc1ccc(NC(=O)c2ccc(OP(=O)(O)Nc3ccc(C)cc3)cc2)cc1` showed a TGI of over 100 µM.
With `Cc1ccnc(NS(=O)(=O)c2ccc(N=[N+]=[N-])cc2)n1` the TGI was over 100 µM.
`Cc1ccccc1C(=N)c1ccccc1Cc1cccc2ccccc12` gave a TGI of over 100 µM.
With `CCC(=O)NC(Nc1cc(C)on1)(C(F)(F)F)C(F)(F)F` the TGI was over 100 µM.
For `COc1ccc(-c2[nH]c3c4c(nc5c(c24)C(=O)CC(C)(C)C5)CC(C)(C)C3)cc1`, the TGI was over 100 µM.
`CCC(=O)NCC1CCCN2CCCCC12` (stereo not drawn) gave a TGI of over 100 µM.
Work on `Cc1ccccc1OC(C)C(=O)NN1C(=O)CSC1c1ccccc1` (stereo not drawn) yielded a TGI of over 100 µM.
`Cc1ccc(N(Cc2ccccc2)Cc2ccccc2)cc1` was tested, and the TGI was over 100 µM.
With `Nc1nc(-c2ccccc2)nc2oc(-c3cccs3)nc12` the TGI was over 100 µM.
`CC(C)=CCC[C@@H](C)c1c(O)c(O)c(C)c2nccnc12` showed a TGI of over 100 µM.
For `O=c1[nH]c(=S)[nH]c2c1C(c1ccc([N+](=O)[O-])cc1)c1c([nH]c(=S)[nH]c1=O)O2`, the TGI was over 100 µM.
For `Cn1c(=O)c2c(nc3n2CC(C(=O)O)N3)n(C)c1=O` (stereo not drawn), the TGI was over 100 µM.
In the case of `Cc1ccc(-c2cc(-c3ccco3)c(C#N)c(=S)n2C2OC(CO)C(O)C(O)C2O)cc1` (stereo not drawn), the GI50 is reported as 8.83 µM and 24 µM and the TGI is reported as 35.4 µM and 88.1 µM.
`Cc1oc2c(cc(O)c3cc(O)ccc32)c2cccc1-2` was tested, and the TGI was over 100 µM.
`NC(N)=Nc1ccc(CC(N)NCC(=O)O)cc1` (stereo not drawn) was tested, and the TGI was over 25 µM.
Work on `COC(=O)C1=C(C(=O)OC)SC(=C2SCSC3=C2SC(C(=O)OC)=C(C(=O)OC)C32SC3=C(CCCC3)S2)S1` yielded a TGI of over 100 µM.
With `COc1nncc2[nH]c(-c3ccccc3)cc12` the TGI was over 100 µM.
`COc1ccc(-n2c(C)nc3ccc(NC(=S)Nc4ccccc4)cc3c2=O)cc1` was tested, and the TGI was over 100 µM.
With `O=S(=O)(c1ccccc1)c1cccc2c1NCCC2` the TGI was over 100 µM.
`COP(=O)(OC)C1=c2c(C)noc2=C2C=COC2C1=O` (stereo not drawn) gave a TGI of over 100 µM.

The compounds below were run on OVCAR-3 ovarian (assay: NCI-60 cell line screen, 48 h).
Work on `CCOC(=O)c1c(CN2CCCC2)n(-c2ccccc2)c2cc(Br)c(O)cc12` yielded a TGI of 30.3 µM.
`O=C1c2cc3c(cc2-c2c1c1ccc(F)cc1c(=O)n2C[C@H](O)[C@@H](O)[C@H](O)CO)OCO3` gave a GI50 of 0.0989 µM and a TGI of 0.476 µM.
With `Nn1c(Nc2ccc(S(=O)(=O)Nc3ncccn3)cc2)nnc(/C=C/c2c(O)ccc3ccccc23)c1=O` the TGI was 55.9 µM.
For `Cc1cc(-c2nc3ccc(F)cc3s2)ccc1NC(=O)[C@H](C)N`, the TGI was 23.7 µM.
`Cc1cc(Nc2ccc(S(=O)(=O)O)c3cc(S(=O)(=O)O)cc(S(=O)(=O)O)c23)c2ccccc2n1` showed a TGI of over 100 µM.
In the case of `NS(=O)(=O)c1nnc(NC(=O)Nc2ccc(Cl)c(Cl)c2)s1`, the TGI is reported as over 100 µM.
`O=[N+]([O-])c1cc(C=NC23CC4CC(CC(C4)C2)C3)ccc1Cl` gave a TGI of 33.9 µM.
`CCCCCC1=CC(=O)C1(Cl)Cl` gave a TGI of 27 µM.
For `CC(=O)N(C(=O)CC(=O)N1N=C(c2ccccc2)C(N=Nc2ccccc2[N+](=O)[O-])C1=O)c1ccc(Cl)cc1` (stereo not drawn), the TGI was over 10 µM.
With `Oc1ccccc1CNCc1nc2ccccc2[nH]1` the TGI was over 100 µM.
For `COc1ncc(/C=C2\OC(=O)c3ccccc32)c(OC)n1`, the TGI was over 100 µM.
Compound `C[C@]12CCC3C4=C(CCC3C1CCC2=O)C(=O)[C@H]1O[C@H]1C4=O` (stereo partly drawn) has a TGI of 3.15 µM.
With `CCCCOC(=O)Nc1ccc(S(=O)(=O)Nc2ccccc2Cl)cc1` the TGI was 44.3 µM.
In the case of `CC(C)c1cc2c(cc1S(=O)(=O)O)[C@@]1(C)CCC[C@@](C)(C(=O)O)C1CC2` (stereo partly drawn), the TGI is reported as over 100 µM.
`N#CC(Cc1ccccc1)N(CCC1=CCCCC1)C(c1ccccc1)c1ccccc1` (stereo not drawn) showed a TGI of over 100 µM.
Compound `C/C(=C\CBr)CCC(Br)C(C)(C)Br` (stereo not drawn) has a TGI of over 100 µM.
Work on `[N-]=[N+]=NC(c1ccccc1)(c1ccccc1)c1ccccc1` yielded a TGI of 42.5 µM.
With `CC(=O)c1c2c(c3ccccc3c1O)O[C@@H]1OCC[C@H]21` the TGI was over 100 µM.
In the case of `C(=C(c1ccc(OC2CCCCO2)cc1)c1ccc(OC2CCCCO2)cc1)c1ccccc1` (stereo not drawn), the TGI is reported as 1.75 µM.
Work on `C[C@]12CC[C@H](O)CC1=CC[C@@H]1[C@@H]2CC[C@]2(C)C(=N/N)/C(=N\O)C[C@@H]12` yielded a TGI of over 100 µM.
Compound `CC(=O)Oc1cccc2c1C(=O)CCCC2` has a TGI of over 100 µM.
With `CCN(CC)C(=S)N/N=C/c1cc([N+](=O)[O-])ccc1O` the TGI was 13.3 µM.
`Cc1ccc(NC(=O)c2ccc(OP(=O)(O)Nc3ccc(C)cc3)cc2)cc1` was tested, and the TGI was over 100 µM.
In the case of `Cc1ccnc(NS(=O)(=O)c2ccc(N=[N+]=[N-])cc2)n1`, the TGI is reported as over 100 µM.
With `Cc1ccccc1C(=N)c1ccccc1Cc1cccc2ccccc12` the TGI was 26.6 µM.
Compound `CCC(=O)NC(Nc1cc(C)on1)(C(F)(F)F)C(F)(F)F` has a TGI of over 100 µM.
`COc1ccc(-c2[nH]c3c4c(nc5c(c24)C(=O)CC(C)(C)C5)CC(C)(C)C3)cc1` showed a TGI of over 100 µM.
For `Cc1ccccc1OC(C)C(=O)NN1C(=O)CSC1c1ccccc1` (stereo not drawn), the TGI was over 100 µM.
In the case of `Cc1ccc(N(Cc2ccccc2)Cc2ccccc2)cc1`, the TGI is reported as over 100 µM.
For `Nc1nc(-c2ccccc2)nc2oc(-c3cccs3)nc12`, the TGI was over 100 µM.
For `CC(C)=CCC[C@@H](C)c1c(O)c(O)c(C)c2nccnc12`, the TGI was over 100 µM.
Compound `O=c1[nH]c(=S)[nH]c2c1C(c1ccc([N+](=O)[O-])cc1)c1c([nH]c(=S)[nH]c1=O)O2` has a TGI of over 100 µM.
`Cn1c(=O)c2c(nc3n2CC(C(=O)O)N3)n(C)c1=O` (stereo not drawn) was tested, and the TGI was over 100 µM.
In the case of `Cc1ccc(-c2cc(-c3ccco3)c(C#N)c(=S)n2C2OC(CO)C(O)C(O)C2O)cc1` (stereo not drawn), the TGI is reported as 55.9 µM and 90.7 µM.
`Cc1oc2c(cc(O)c3cc(O)ccc32)c2cccc1-2` was tested, and the TGI was over 100 µM.
With `NC(N)=Nc1ccc(CC(N)NCC(=O)O)cc1` (stereo not drawn) the TGI was over 25 µM.
For `COC(=O)C1=C(C(=O)OC)SC(=C2SCSC3=C2SC(C(=O)OC)=C(C(=O)OC)C32SC3=C(CCCC3)S2)S1`, the TGI was over 100 µM.
`COc1nncc2[nH]c(-c3ccccc3)cc12` showed a TGI of over 100 µM.
For `COc1ccc(-n2c(C)nc3ccc(NC(=S)Nc4ccccc4)cc3c2=O)cc1`, the TGI was over 100 µM.
In the case of `O=S(=O)(c1ccccc1)c1cccc2c1NCCC2`, the TGI is reported as over 100 µM.
With `COP(=O)(OC)C1=c2c(C)noc2=C2C=COC2C1=O` (stereo not drawn) the TGI was over 100 µM.

The compounds below were run on OVCAR-5 ovarian (assay: NCI-60 cell line screen, 48 h).
`CCOC(=O)c1c(CN2CCCC2)n(-c2ccccc2)c2cc(Br)c(O)cc12` showed a TGI of 36.5 µM.
With `O=C1c2cc3c(cc2-c2c1c1ccc(F)cc1c(=O)n2C[C@H](O)[C@@H](O)[C@H](O)CO)OCO3` the GI50 was 0.222 µM and the TGI was 0.782 µM.
`Nn1c(Nc2ccc(S(=O)(=O)Nc3ncccn3)cc2)nnc(/C=C/c2c(O)ccc3ccccc23)c1=O` showed a TGI of 91.9 µM.
Compound `Cc1cc(-c2nc3ccc(F)cc3s2)ccc1NC(=O)[C@H](C)N` has a TGI of 21.7 µM.
Compound `Cc1cc(Nc2ccc(S(=O)(=O)O)c3cc(S(=O)(=O)O)cc(S(=O)(=O)O)c23)c2ccccc2n1` has a TGI of over 100 µM.
With `NS(=O)(=O)c1nnc(NC(=O)Nc2ccc(Cl)c(Cl)c2)s1` the TGI was 75 µM.
With `O=[N+]([O-])c1cc(C=NC23CC4CC(CC(C4)C2)C3)ccc1Cl` the TGI was over 100 µM.
With `CCCCCC1=CC(=O)C1(Cl)Cl` the TGI was 29.5 µM.
`CC(=O)N(C(=O)CC(=O)N1N=C(c2ccccc2)C(N=Nc2ccccc2[N+](=O)[O-])C1=O)c1ccc(Cl)cc1` (stereo not drawn) showed a TGI of over 10 µM.
For `Oc1ccccc1CNCc1nc2ccccc2[nH]1`, the TGI was over 100 µM.
For `COc1ncc(/C=C2\OC(=O)c3ccccc32)c(OC)n1`, the TGI was over 100 µM.
`CC(=O)Nn1c(=S)[nH]c2ccccc21` was tested, and the TGI was over 100 µM.
`C[C@]12CCC3C4=C(CCC3C1CCC2=O)C(=O)[C@H]1O[C@H]1C4=O` (stereo partly drawn) was tested, and the TGI was 10.4 µM.
In the case of `CCCCOC(=O)Nc1ccc(S(=O)(=O)Nc2ccccc2Cl)cc1`, the TGI is reported as 55.4 µM.
For `CC(C)c1cc2c(cc1S(=O)(=O)O)[C@@]1(C)CCC[C@@](C)(C(=O)O)C1CC2` (stereo partly drawn), the TGI was over 100 µM.
Work on `N#CC(Cc1ccccc1)N(CCC1=CCCCC1)C(c1ccccc1)c1ccccc1` (stereo not drawn) yielded a TGI of over 100 µM.
With `C/C(=C\CBr)CCC(Br)C(C)(C)Br` (stereo not drawn) the TGI was over 100 µM.
`[N-]=[N+]=NC(c1ccccc1)(c1ccccc1)c1ccccc1` gave a TGI of 30.1 µM.
With `CC(=O)c1c2c(c3ccccc3c1O)O[C@@H]1OCC[C@H]21` the TGI was over 100 µM.
With `C(=C(c1ccc(OC2CCCCO2)cc1)c1ccc(OC2CCCCO2)cc1)c1ccccc1` (stereo not drawn) the TGI was 2.25 µM.

Reference: PubChem BioAssay (NCI)
